Reference: the supplement of paper PMC8988213
Structures can show the parent of a compound that is named as a salt.

What was measured:
[1] = system: ID188 patient-derived PDAC 2D line (pre-FOLFIRINOX); test: normalised area under dose-response curve (viability relative to DMSO, 7 doses up to 10 µM) (fraction (AUC)); higher = less sensitive (more viability retained); settings: 72 h; top dose: 10 µM
Outline: (§1)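 Patient-derived 2D PDAC cells grown out from organoids were seeded robotically at 1,500–3,000 cells/well in 96-well plates and incubated overnight at 37°C, 5% CO2. SelleckChem library compounds were added at seven concentrations (3-fold dilution series, highest 10 µM) for 72 h. CellTiter-Glo luminescence was read after 10 min. Viability was normalised to the DMSO control, and area under the dose-response curve was derived with the GRmetrics R package.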

[2] = system: ID211 patient-derived PDAC 2D line (post-FOLFIRINOX); test: as above; settings: 72 h; top dose: 10 µM
Outline: as §1

SMILES	normalised area under dose-response curve [1]	normalised area under dose-response curve [2]
O=C(NCc1cccc(O)c1)Nc1nc(-c2ccncc2)cs1 [RKI-1447]	1.04	0.962
Oc1c2ccccc2c2c3c(cccc13)N=N2	0.881	1.04
CC(C)N(CCCNC(=O)Nc1ccc(C(C)(C)C)cc1)C[C@H]1O[C@@H](n2ccc3c(N)ncnc32)[C@H](O)[C@@H]1O	0.952	0.899
Cc1cc(Nc2ncc(Cl)c(Nc3ccccc3S(=O)(=O)C(C)C)n2)c(OC(C)C)cc1C1CCNCC1 [Ceritinib (LDK378)]	0.823	0.685
CC(C)Oc1ccc(C(=O)N[C@H](CNC(=O)CN(C)C)Cc2ccc(-c3cn4cccc([C@H](C)O)c4n3)cc2)cc1Cl	0.64	0.709
C[C@@H](N)[C@H]1CC[C@H](C(=O)Nc2ccncc2)CC1	0.941	0.922
COc1cc2nccc(Oc3ccc(NC(=O)C4(C(=O)Nc5ccc(F)cc5)CC4)cc3)c2cc1OC [Cabozantinib malate (XL184)]	0.585	0.78
Cc1sc2c(c1C)C(c1ccc(Cl)cc1)=N[C@@H](CC(=O)OC(C)(C)C)c1nnc(C)n1-2 [(+)-JQ1]	0.842	0.652
O=C(NC1CCNCC1)c1n[nH]cc1NC(=O)c1c(Cl)cccc1Cl [AT7519 HCl]	0.725	0.673
CCNC(=O)c1noc(-c2cc(C(C)C)c(O)cc2O)c1-c1ccc(CN2CCOCC2)cc1 [Luminespib (AUY-922, NVP-AUY922)]	0.485	0.345
CC(C)C[C@H](NC(=O)[C@H](CCc1ccccc1)NC(=O)CN1CCOCC1)C(=O)N[C@@H](Cc1ccccc1)C(=O)N[C@@H](CC(C)C)C(=O)[C@@]1(C)CO1 [Carfilzomib (PR-171)]	0.126	0.0368
C[C@H]1CNC(=O)c2cnn3ccc(nc23)N[C@H](C)c2cc(F)ccc2O1 [TPX-0005]	0.777	0.728
CC(C)(C#N)c1ccc(N2C(=O)OCc3cnc4ccc(-c5cnc6ccccc6c5)cc4c32)cc1	0.825	0.804
Cc1nc(Nc2n[nH]c3c2CN(C(=O)N[C@H](CN(C)C)c2ccccc2)C3(C)C)c2sccc2n1	0.578	0.551
Cc1ccc(C(=O)Nc2cccc(C(F)(F)F)c2)cc1Nc1nc(-c2cccnc2)nc2c1cnn2C [NVP-BHG712]	0.869	0.831
Cc1nc(Nc2ncc(C(=O)Nc3c(C)cccc3Cl)s2)cc(N2CCN(CCO)CC2)n1 [Dasatinib hydrochloride]	0.377	0.468
CN(C)C/C=C/C(=O)Nc1cc2c(Nc3ccc(F)c(Cl)c3)ncnc2cc1O[C@H]1CCOC1 [Afatinib (BIBW2992) Dimaleate]	0.855	0.58
Cn1cnc2c(F)c(Nc3ccc(Br)cc3F)c(C(=O)NOCCO)cc21	0.732	0.457
CCOc1cc2ncc(C#N)c(Nc3ccc(OCc4ccccn4)c(Cl)c3)c2cc1NC(=O)/C=C/CN(C)C [Neratinib (HKI-272)]	0.893	0.638
